Laboratory results as given in PMC3856494, “Radiofluorination and biological evaluation of N-aryl-oxadiazolyl-propionamides as potential radioligands for PET imaging of cannabinoid CB2 receptors” (Organic and Medicinal Chemistry Letters, 2013).
Like-named read-outs stand apart in the source and are kept apart here.

What was measured:
human CB1R = human CB1R (Homo sapiens, UniProt P21554); test: In vitro CB receptor affinity assay, displacement of [3H]CP55,940, CHO cells transfected with human CB1R; format: binding
Description: (§1) For binding experiments, Chinese hamster ovary (CHO) cell lines stably transfected with human CB1R human and CB2R were used according to the procedures previously described. […] The binding experiments were performed in triplicates, and data were given as mean values from independent experiments.

[1] = HPLC-based logD determination; format: physicochemical; conditions: RP-HPLC, reference compounds
Description: The distribution coefficients of [^18F]1 and [^18F]2 were also calculated from RP-HPLC retention times in three different systems: (1) isocratic elution (60% MeCN/20 mM NH4OAc at a flow rate of 1 mL/min) and (2) gradient elution (starting from 10% MeCN/20 mM NH4OAc aq. for 10 min with a gradient to 90% MeCN/20 mM NH4OAc aq. over 30 min at a flow rate of 1 mL/min) on a Reprosil-Pur C18-AQ column (5 μm, 250 × 4.6 mm, Dr. Maisch HPLC GmbH, Ammerbruch-Entringen, Germany), and (3) isocratic elution (52.5% MeCN/20 mM NH4OAc at a flow rate of 1 mL/min) on a Prodigy 5 μm C8 (250 × 4 mm; Phenomenex Ltd, Aschaffenburg, Germany) using the reference compounds following the protocol according to the EU guideline 67/548/EWG [44].

human CB2R = human CB2R (Homo sapiens, UniProt P34972); test: In vitro CB receptor affinity assay, displacement of [3H]CP55,940, CHO cells transfected with human CB2R; format: binding
Description: as §1

Chain of human CB1R (P21554 whole entry): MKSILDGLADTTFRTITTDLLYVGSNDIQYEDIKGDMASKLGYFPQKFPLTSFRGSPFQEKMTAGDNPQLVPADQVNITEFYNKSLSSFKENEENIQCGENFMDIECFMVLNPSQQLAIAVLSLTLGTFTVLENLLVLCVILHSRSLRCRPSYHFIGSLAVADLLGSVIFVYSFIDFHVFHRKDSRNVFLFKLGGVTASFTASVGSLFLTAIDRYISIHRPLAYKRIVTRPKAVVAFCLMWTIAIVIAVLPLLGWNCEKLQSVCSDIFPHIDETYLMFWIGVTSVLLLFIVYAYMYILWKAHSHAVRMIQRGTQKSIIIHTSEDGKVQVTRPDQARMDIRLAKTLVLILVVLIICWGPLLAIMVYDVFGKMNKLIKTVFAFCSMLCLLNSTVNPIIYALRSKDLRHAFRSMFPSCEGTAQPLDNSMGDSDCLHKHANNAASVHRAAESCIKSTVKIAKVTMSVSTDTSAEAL
Chain of human CB2R (P34972 whole entry): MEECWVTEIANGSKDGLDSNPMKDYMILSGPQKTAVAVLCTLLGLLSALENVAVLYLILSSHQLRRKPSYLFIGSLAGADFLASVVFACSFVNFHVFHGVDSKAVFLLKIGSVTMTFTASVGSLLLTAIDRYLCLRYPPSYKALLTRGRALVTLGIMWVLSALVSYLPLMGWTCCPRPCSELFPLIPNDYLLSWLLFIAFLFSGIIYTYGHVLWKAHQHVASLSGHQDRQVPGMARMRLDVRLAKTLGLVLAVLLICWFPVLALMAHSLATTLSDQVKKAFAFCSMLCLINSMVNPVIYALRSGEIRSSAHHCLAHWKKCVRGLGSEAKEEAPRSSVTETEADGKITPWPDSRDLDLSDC

In the case of `O=C(CCc1nc(-c2ccc(F)cc2Br)no1)Nc1ccc2c(c1)c1ccccc1n2CCF` [Compound 1, 3-[3-(2-Bromo-4-fluorophenyl)-1,2,4-oxadiazol-5-yl]-N-[9-(2-fluoroethyl)-9H-carbazol-3-yl]propanamide], the Ki (human CB1R) is reported as greater than 1000 nM, the chromatographic logD ([1]; Prodigy 5 μm C8 column, isocratic 52.5% MeCN/20 mM NH4OAc, n = 3 to 6, read-out: logD Prodigy 5 μ C8 Isocratic) is reported as 3.86 ± 0.33 and the chromatographic logD ([1]; Reprosil-Pur C18-AQ column, gradient 10% to 90% MeCN/20 mM NH4OAc, n = 3 to 6, read-out: logD Reposil-Pur C18-AQ Gradient) is reported as 3.82 ± 0.1. It also gave a chromatographic logD ([1]; Reprosil-Pur C18-AQ column, isocratic 60% MeCN/20 mM NH4OAc, n = 3 to 6, read-out: logD Reposil-Pur C18-AQ Isocratic) of 4.21 ± 0.32 and a Ki (human CB2R) of 2.32 ± 2.12 nM.
